Tests used:
[1] = tested on: progesterone-induced endometrial proliferation in the rabbit uterus; assay: anti-McGinty and anti-Clauberg assays (biological activity in the rabbit uterus); type: in vivo; settings: in comparison to RU 486 and CDB-2914
Text: Also given in Table 1 are the relative biological activities of the same compounds in the rabbit uterus by the anti-McGinty and anti-Clauberg assays. Compound CDB-2914 (listed at the end of the Table) was used as the control or reference compound (rabbit Biological Activity=1.00) for these experiments because results of experiments using CDB-2914 have been published before (Hild-Petito et al., 1996; Passaro et al., 1997; Reel et al., 1998; Lamer et al., 2000). For the anti-McGinty test, immature female rabbits received a subcutaneous injection of 5 μg estradiol in 10% ethanol/sesame oil daily for 6 consecutive days. On day 7, animals underwent sterile abdominal surgery to ligate a 3-4 cm segment of both uterine horns. The test compound in appropriate solvent was injected intraluminally into the ligated segment of one uterine horn and vehicle alone into the other. […] Five micron sections stained with hematoxylin and cosin were evaluated microscopically for the degree of endometrial glandular proliferation. The percent inhibition of endometrial proliferation for each rabbit was calculated and the mean of the group of five animals recorded. […] Five micron sections stained with hematoxylin and eosin were evaluated microscopically for the degree of endometrial glandular proliferation. […]

[2] = molecular target: T1, glucocorticoid receptor (rbGR) (Oryctolagus cuniculus, UniProt P59667); assay: Glucocorticoid receptor binding / anti-glucocorticoid receptor activity; design: species or system rabbit
T1 construct: cytosol containing PR or GR were prepared in TEGMD buffer; from tissue; host or cells: thymus of estradiol-primed immature rabbits (cytosol)
T1 sequence (P59667 1-772): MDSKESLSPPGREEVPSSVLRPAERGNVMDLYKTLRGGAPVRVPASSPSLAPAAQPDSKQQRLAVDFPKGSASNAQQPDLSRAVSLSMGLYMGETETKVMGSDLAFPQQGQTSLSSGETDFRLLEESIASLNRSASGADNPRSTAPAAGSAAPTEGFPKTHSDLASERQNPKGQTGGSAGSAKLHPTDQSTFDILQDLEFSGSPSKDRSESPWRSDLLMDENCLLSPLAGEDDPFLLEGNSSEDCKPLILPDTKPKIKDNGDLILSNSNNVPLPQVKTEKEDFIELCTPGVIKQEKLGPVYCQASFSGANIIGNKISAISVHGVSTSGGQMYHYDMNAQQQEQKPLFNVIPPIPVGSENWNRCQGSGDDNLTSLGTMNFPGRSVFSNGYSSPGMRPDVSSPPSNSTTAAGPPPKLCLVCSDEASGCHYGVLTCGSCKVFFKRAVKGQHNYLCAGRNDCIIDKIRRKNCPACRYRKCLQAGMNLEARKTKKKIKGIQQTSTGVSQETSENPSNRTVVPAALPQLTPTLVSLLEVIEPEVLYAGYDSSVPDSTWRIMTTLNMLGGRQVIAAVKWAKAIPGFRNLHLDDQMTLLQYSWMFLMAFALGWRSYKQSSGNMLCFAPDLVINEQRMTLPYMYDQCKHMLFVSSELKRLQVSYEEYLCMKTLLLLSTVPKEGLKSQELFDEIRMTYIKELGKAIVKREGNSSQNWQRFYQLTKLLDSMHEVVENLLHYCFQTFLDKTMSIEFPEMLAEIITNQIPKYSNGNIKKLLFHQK
Experimental: Certain antiprogestins were tested in receptor-binding assays for their ability to bind rabbit progesterone receptor (rbPR) and glucocorticoid receptor (rbGR). […] For PR binding, the cytosol was incubated with 6 nM 1,2-[^3H]progesterone (50.0 Ci/mmole) and competitors were added at concentrations from 2 to 100 nM. For binding to GR, the cytosol was incubated with 6 nM 6,7-[^3H]-dexamethasone (40 Ci/mmol) and test compounds were added at concentrations from 20 to 100 nM. After overnight incubation at 4 C, bound and unbound [^3H] steroids were separated by addition of dextran-coated charcoal and centrifugation at 2100×g for 15 min at 4 C. Supernatants containing the [3H]-steroid receptor complexes were decanted into vials containing 4 ml Optifluor (Packard Instrument Co.), vortexed, equilibrated in a liquid scintillation counter for 30 minutes and then counted for 2 minutes. […] The standards for the PR and GR assays were unlabeled progesterone and dexamethasone, respectively.

[3] = molecular target: T2, glucocorticoid receptor (Homo sapiens, UniProt P04150); settings: Attardi et al., 2002; cited from earlier work
T2 sequence (P04150 1-777): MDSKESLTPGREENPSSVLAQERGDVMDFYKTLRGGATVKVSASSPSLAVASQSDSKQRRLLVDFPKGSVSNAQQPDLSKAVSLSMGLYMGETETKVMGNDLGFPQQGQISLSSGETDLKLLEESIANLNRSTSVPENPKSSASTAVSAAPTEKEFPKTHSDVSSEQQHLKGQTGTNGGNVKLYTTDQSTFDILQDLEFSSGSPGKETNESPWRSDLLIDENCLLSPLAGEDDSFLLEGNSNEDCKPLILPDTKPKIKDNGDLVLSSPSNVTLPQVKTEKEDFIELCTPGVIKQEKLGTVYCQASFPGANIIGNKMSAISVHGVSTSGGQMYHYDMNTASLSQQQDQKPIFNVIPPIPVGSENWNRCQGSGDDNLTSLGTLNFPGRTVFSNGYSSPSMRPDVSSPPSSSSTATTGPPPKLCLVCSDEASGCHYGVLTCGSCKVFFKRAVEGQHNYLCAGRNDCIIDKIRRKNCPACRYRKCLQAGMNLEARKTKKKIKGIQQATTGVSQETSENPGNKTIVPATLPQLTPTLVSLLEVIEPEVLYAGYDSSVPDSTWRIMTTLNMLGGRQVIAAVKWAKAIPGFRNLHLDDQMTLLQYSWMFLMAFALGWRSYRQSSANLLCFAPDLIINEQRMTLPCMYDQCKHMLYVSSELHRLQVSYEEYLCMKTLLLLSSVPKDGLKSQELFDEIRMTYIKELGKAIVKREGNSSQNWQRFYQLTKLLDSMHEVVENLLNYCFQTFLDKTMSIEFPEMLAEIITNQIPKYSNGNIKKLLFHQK

[4] = tested on: pre-menopausal adult women diagnosed with endometriosis; assay: Six month study of Proellex (CDB-4124) in the treatment of endometriosis; type: in vivo, human; settings: Lucrin
Experimental: Pain reduction also occurred more rapidly than with the active control, Lucrin®. The response of pain to treatment in this study was analyzed in two ways. Patients in the study maintained daily pain diaries to record the severity and frequency of pain. In addition, at each office visit, patients filled out endometriosis symptom surveys that included a questionnaire that evaluated intensity of pain on a bad day on a scale of 0-10 with 10 being the greatest intensity. […] There appeared to be a dose dependent effect on pain reduction. […] This decrease in duration of pain was statistically better (p=0.0012) than the 117.8 (74%; standard deviation 51.4 days) pain free days achieved with Lucrin®. […] Patients on CDB-4124 12.5 mg and 25 mg doses had 115.9 (66%; standard deviation 69.2 days) and 133.6 (75%; standard deviation 27.4 days) pain free days, respectively. […] The 25 mg and 12.5 mg doses of CDB-4124 were not statistically different from Lucrin®. […] The intensity of pain was assessed by the question: “On a […], with 0 being no pain and 10 being extreme pain, how intense was your pain on a bad day?” The mean scores for intensity of pain at baseline were 6.3 for the CDB-4124 groups and 6.1 for the Lucrin® group. […] At month three all four active treatment groups had statistically significant reduction in pain compared with baseline, with the following scores: 3.7 (p=0.03) for 12.5 mg CDB-4124, 3.2 (p=0.03) for 25 mg CDB-4124, 1.6 (p=0.015) for 50 mg CDB-4124 and 1.5 (p=0.016) for Lucrin®. These dose related reductions continued until month six when the values for pain intensity were 2.0 (p=0.008), 2.8 (p=0.023), 0.6 (p=0.004) and 0.7 (p=0.016), respectively. Two months after stopping treatment pain returned and was of similar intensity in all four treatment groups.

[5] = Serum corticosterone in rats; settings: progesterone, CDB-4124 and RU-486 groups compared

CC(=O)OCC(=O)[C@@]1(OC(C)=O)CCC2C3CCC4=CC(=O)CCC4=C3C(c3ccc(N(C)C)cc3)C[C@@]21C (stereo partly drawn) [CDB-4059, 21-acetoxy-17α-acetoxy-11β-(4 N,N-dimethylaminophenyl)-19-norpregna-4,9-diene-3,20-dione]
antiprogestin activity in the rabbit uterus [1]: strong
anti-glucocorticoid receptor activity / glucocorticoid receptor binding [2]: minimal

CNc1ccc([C@H]2C[C@@]3(C)[C@@H](CC[C@]3(OC(C)=O)C(=O)COC)[C@@H]3CCC4=CC(=O)CCC4=C32)cc1 [CDB-4453, 21-methoxy-17α-acetoxy-11β-(4-N-methylaminophenyl)-19-norpregna-4,9-diene-3,20-dione]
anti-glucocorticoid activity relative to parent CDB-4124 [3]: even lower

CCNC(=O)[C@@H]1CCCN1C(=O)[C@H](CCCNC(=N)N)NC(=O)[C@H](CC(C)C)NC(=O)[C@@H](CC(C)C)NC(=O)[C@H](Cc1ccc(O)cc1)NC(=O)[C@H](CO)NC(=O)[C@H](Cc1c[nH]c2ccccc12)NC(=O)[C@H](Cc1c[nH]cn1)NC(=O)[C@@H]1CCC(=O)N1 [Lupron®, leuprolide acetate, reference compound]
intensity of pain on a bad day (score) ([4]; month six, scale 0-10, p=0.016): 0.7
intensity of pain on a bad day (score) ([4]; month three, scale 0-10, baseline 6.1, p=0.016): 1.5

CC#C[C@]1(O)CC[C@H]2[C@@H]3CCC4=CC(=O)CCC4=C3[C@@H](c3ccc(N(C)C)cc3)C[C@@]21C [RU 486, 11β-[p-(Dimethylamino)phenyl]-17β-hydroxy-17-(1-propynyl)estra-4,9-dien-3-one, reference compound]
differences in serum corticosterone between treatment groups [5]: No differences

Source: patent US8426394B2, “Progesterone antagonists such as CDB-4124 in the treatment of endometriosis, uterine fibroids, dysmenorrhea, breast cancer, etc” (Repros Therapeutics Inc., priority 2008, dated 2013)
